Data published in PubChem BioAssay (NCI).
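Dose response: 5 concentrations. Exposure: 48 h. Format: 96-well plates. Endpoint: linear interpolation; highest concentration if not reached. At the GI50, growth is halved. At the TGI there is no net growth.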

Experiments:
Assay in all cases: NCI-60 cell line screen, 48 h
OVCAR-3 ovarian = system: OVCAR-3 ovarian
MDA-MB-435 = system: MDA-MB-435
CCRF-CEM leukemia = system: CCRF-CEM leukemia
HS 578T breast = system: HS 578T breast
HCC-2998 colon = system: HCC-2998 colon
LOX IMVI melanoma = system: LOX IMVI melanoma
M14 melanoma = system: M14 melanoma
NCI-H460 lung = system: NCI-H460 lung
SK-MEL-28 melanoma = system: SK-MEL-28 melanoma
OVCAR-5 ovarian = system: OVCAR-5 ovarian
OVCAR-8 ovarian = system: OVCAR-8 ovarian
UACC-257 melanoma = system: UACC-257 melanoma
786-0 renal = system: 786-0 renal
A498 renal = system: A498 renal
MOLT-4 leukemia = system: MOLT-4 leukemia
HOP-62 NSCLC = system: HOP-62 NSCLC
RPMI-8226 leukemia = system: RPMI-8226 leukemia
SR leukemia = system: SR leukemia
SK-OV-3 ovarian = system: SK-OV-3 ovarian
K-562 leukemia = system: K-562 leukemia
MCF7 breast = system: MCF7 breast
SF-295 CNS = system: SF-295 CNS
RXF 393 renal = system: RXF 393 renal
PC-3 prostate = system: PC-3 prostate
OVCAR-4 ovarian = system: OVCAR-4 ovarian
ACHN renal = system: ACHN renal
CAKI-1 renal = system: CAKI-1 renal
KM12 colon = system: KM12 colon
BT-549 breast = system: BT-549 breast
SW-620 colon = system: SW-620 colon
HT29 colon = system: HT29 colon
HOP-92 NSCLC = system: HOP-92 NSCLC
SK-MEL-5 melanoma = system: SK-MEL-5 melanoma
SNB-75 CNS = system: SNB-75 CNS
U251 CNS = system: U251 CNS
NCI-H23 lung = system: NCI-H23 lung
IGROV1 ovarian = system: IGROV1 ovarian
DU-145 prostate = system: DU-145 prostate
SNB-19 CNS = system: SNB-19 CNS
COLO 205 colon = system: COLO 205 colon
SN12C renal = system: SN12C renal
NCI-H226 lung = system: NCI-H226 lung
HCT-15 colon = system: HCT-15 colon
NCI-H522 lung = system: NCI-H522 lung
T-47D breast = system: T-47D breast
NCI/ADR-RES ovarian = system: NCI/ADR-RES ovarian
MALME-3M melanoma = system: MALME-3M melanoma
UACC-62 melanoma = system: UACC-62 melanoma
SF-268 CNS = system: SF-268 CNS
SK-MEL-2 melanoma = system: SK-MEL-2 melanoma
SF-539 CNS = system: SF-539 CNS
HL-60(TB) leukemia = system: HL-60(TB) leukemia
A549 NSCLC = system: A549 NSCLC
MDA-MB-231 breast = system: MDA-MB-231 breast
HCT-116 colon = system: HCT-116 colon
UO-31 renal = system: UO-31 renal
EKVX NSCLC = system: EKVX NSCLC
TK-10 renal = system: TK-10 renal

Work on `COc1ccc(C(=O)c2cc(OC)c(OC)c(OC)c2)cc1OC(=O)C(Cl)(Cl)Cl` yielded a GI50 (OVCAR-3 ovarian) of 27.8 nM, a TGI (OVCAR-3 ovarian) of over 100000 nM and a GI50 (MDA-MB-435) of under 10 nM. It also gave a GI50 (CCRF-CEM leukemia) of under 18.3 nM, a TGI (CCRF-CEM leukemia) of over 100000 nM and a GI50 (HS 578T breast) of 18 nM. The TGI (HS 578T breast) was over 100000 nM, the GI50 (HCC-2998 colon) was 46.2 nM and the TGI (HCC-2998 colon) was over 100000 nM. The GI50 (LOX IMVI melanoma) was under 13.4 nM, the TGI (LOX IMVI melanoma) was over 100000 nM and the GI50 (M14 melanoma) was under 10 nM. The TGI (M14 melanoma) was over 100000 nM, the GI50 (NCI-H460 lung) was 38.8 nM and the TGI (NCI-H460 lung) was over 100000 nM. It also gave a GI50 (SK-MEL-28 melanoma) of 25100 nM, a TGI (SK-MEL-28 melanoma) of over 100000 nM and a GI50 (OVCAR-5 ovarian) of 4490 nM. The TGI (OVCAR-5 ovarian) was over 100000 nM, the GI50 (OVCAR-8 ovarian) was 44.1 nM and the TGI (OVCAR-8 ovarian) was over 100000 nM. The GI50 (UACC-257 melanoma) was over 100000 nM, the TGI (UACC-257 melanoma) was over 100000 nM and the GI50 (786-0 renal) was 587 nM. For the same compound, the TGI (786-0 renal) was over 100000 nM, the GI50 (A498 renal) was 1970 nM and the TGI (A498 renal) was 7180 nM. It also gave a GI50 (MOLT-4 leukemia) of under 19.9 nM, a TGI (MOLT-4 leukemia) of over 50200 nM and a GI50 (HOP-62 NSCLC) of 83 nM. It also gave a TGI (HOP-62 NSCLC) of over 100000 nM, a GI50 (RPMI-8226 leukemia) of under 20.2 nM and a TGI (RPMI-8226 leukemia) of 27200 nM. For the same compound, the GI50 (SR leukemia) was under 10 nM, the TGI (SR leukemia) was over 100000 nM and the GI50 (SK-OV-3 ovarian) was 76.2 nM. It also gave a TGI (SK-OV-3 ovarian) of over 100000 nM, a GI50 (K-562 leukemia) of under 10 nM and a TGI (K-562 leukemia) of over 100000 nM. It also gave a GI50 (MCF7 breast) of 27.2 nM, a TGI (MCF7 breast) of over 100000 nM and a GI50 (SF-295 CNS) of 79.2 nM. It also gave a TGI (SF-295 CNS) of over 100000 nM, a GI50 (RXF 393 renal) of 33.7 nM and a TGI (RXF 393 renal) of over 100000 nM. For the same compound, the GI50 (PC-3 prostate) was under 10.6 nM, the TGI (PC-3 prostate) was over 100000 nM and the GI50 (OVCAR-4 ovarian) was 122 nM. For the same compound, the TGI (OVCAR-4 ovarian) was over 100000 nM, the GI50 (ACHN renal) was 32.9 nM and the TGI (ACHN renal) was over 100000 nM. The GI50 (CAKI-1 renal) was 140 nM, the TGI (CAKI-1 renal) was over 100000 nM and the GI50 (KM12 colon) was under 10 nM. For the same compound, the TGI (KM12 colon) was over 100000 nM, the GI50 (BT-549 breast) was 11.8 nM and the TGI (BT-549 breast) was 880 nM. It also gave a GI50 (SW-620 colon) of under 10 nM, a TGI (SW-620 colon) of over 100000 nM and a GI50 (HT29 colon) of 2000 nM. The TGI (HT29 colon) was over 100000 nM, the GI50 (HOP-92 NSCLC) was 470 nM and the TGI (HOP-92 NSCLC) was over 100000 nM. The GI50 (SK-MEL-5 melanoma) was 32.5 nM, the TGI (SK-MEL-5 melanoma) was 329 nM and the GI50 (SNB-75 CNS) was under 10 nM. The TGI (SNB-75 CNS) was over 100000 nM, the GI50 (U251 CNS) was 38.4 nM and the TGI (U251 CNS) was over 100000 nM. For the same compound, the GI50 (NCI-H23 lung) was 62.7 nM, the TGI (NCI-H23 lung) was over 100000 nM and the GI50 (IGROV1 ovarian) was 312 nM. It also gave a TGI (IGROV1 ovarian) of over 100000 nM, a GI50 (DU-145 prostate) of 28.4 nM and a TGI (DU-145 prostate) of over 100000 nM. For the same compound, the GI50 (SNB-19 CNS) was 45.2 nM, the TGI (SNB-19 CNS) was over 100000 nM and the GI50 (COLO 205 colon) was 1310 nM. The TGI (COLO 205 colon) was 23200 nM, the GI50 (SN12C renal) was 57.9 nM and the TGI (SN12C renal) was over 100000 nM. For the same compound, the GI50 (NCI-H226 lung) was 15400 nM, the TGI (NCI-H226 lung) was over 100000 nM and the GI50 (HCT-15 colon) was under 10 nM. The TGI (HCT-15 colon) was over 100000 nM, the GI50 (NCI-H522 lung) was 16.9 nM and the TGI (NCI-H522 lung) was over 100000 nM. The GI50 (T-47D breast) was 2400 nM, the TGI (T-47D breast) was over 100000 nM and the GI50 (NCI/ADR-RES ovarian) was under 11 nM. It also gave a TGI (NCI/ADR-RES ovarian) of over 100000 nM, a TGI (MALME-3M melanoma) of over 100000 nM and a GI50 (UACC-62 melanoma) of 628 nM. For the same compound, the TGI (UACC-62 melanoma) was over 100000 nM, the GI50 (SF-268 CNS) was 73.6 nM and the TGI (SF-268 CNS) was over 100000 nM. The GI50 (SK-MEL-2 melanoma) was 85300 nM, the TGI (SK-MEL-2 melanoma) was over 100000 nM and the GI50 (SF-539 CNS) was 13.4 nM. It also gave a TGI (SF-539 CNS) of 56 nM, a GI50 (HL-60(TB) leukemia) of under 10 nM and a TGI (HL-60(TB) leukemia) of under 19.1 nM. It also gave a GI50 (A549 NSCLC) of 154 nM, a TGI (A549 NSCLC) of over 100000 nM and a GI50 (MDA-MB-231 breast) of 158 nM. The TGI (MDA-MB-231 breast) was over 100000 nM, the GI50 (HCT-116 colon) was 28.4 nM and the TGI (HCT-116 colon) was over 100000 nM. The GI50 (UO-31 renal) was 540 nM, the TGI (UO-31 renal) was over 100000 nM and the GI50 (EKVX NSCLC) was 3160 nM. For the same compound, the TGI (EKVX NSCLC) was over 100000 nM, the GI50 (TK-10 renal) was 34100 nM and the TGI (TK-10 renal) was over 100000 nM.
